Assay results from PubChem BioAssay AID1745844 (Carcinogenic Potency Database (CPDB), 2022).
The source made the active and inactive calls. The rule behind the calls is not given here.

Test system: rodent lifetime carcinogenesis bioassay, tumor incidence TD50
Assay: chronic cancer bioassays in animals – CPDB, compiled studies (AID 1745844)

`CC[N+](=O)[O-]` was tested, and the TD50 (rat, strain Long-Evans BLU:(LE), females, inhaled, site: liver, lesion: hepatocellular carcinoma, dosed 105 weeks, study length 105 weeks) was 2190 mg/kg/day (inactive) and the carcinogen call (rat, strain Long-Evans BLU:(LE), males, inhaled, site: liver, lesion: one or several types, types not named, dosed 105 weeks, study length 105 weeks) was “negative (inactive)”.

In the case of `CC1CN(N=O)C(=O)NC1=O` (stereo unspecified), the carcinogen call (rat, strain MRC-Wistar, females, in drinking water, site: any site (literature study), lesion: several types, types named in the paper, dosed 52 weeks, study length 127 weeks) is reported as “negative (inactive)”, the TD50 (rat, strain MRC-Wistar, females, in drinking water, site: liver, lesion: several types, types named in the paper, dosed 52 weeks, study length 127 weeks) is reported as 31.2 mg/kg/day and the carcinogen call (rat, strain MRC-Wistar, males, in drinking water, site: any site (literature study), lesion: several types, types named in the paper, dosed 52 weeks, study length 127 weeks) is reported as “negative (inactive)”. The carcinogen call (rat, strain MRC-Wistar, males, in drinking water, site: liver, lesion: one or several types, types not named, dosed 52 weeks, study length 127 weeks) was “negative (inactive)”.

In the case of `CCC(C)=NO`, the TD50 (mouse, strain Charles River CD1, females, inhaled, site: liver, lesion: hepatocellular adenoma, dosed 78 weeks, study length 78 weeks) is reported as 2440 mg/kg/day, the TD50 (mouse, strain Charles River CD1, females, inhaled, site: lung, lesion: adenoma, dosed 78 weeks, study length 78 weeks) is reported as 5880 mg/kg/day and the TD50 (mouse, strain Charles River CD1, males, inhaled, site: liver, lesion: hepatocellular adenoma, dosed 78 weeks, study length 78 weeks) is reported as 1460 mg/kg/day. For the same compound, the TD50 (mouse, strain Charles River CD1, males, inhaled, site: liver, lesion: hepatocellular carcinoma, dosed 78 weeks, study length 78 weeks) was 810 mg/kg/day, the TD50 (mouse, strain Charles River CD1, males, inhaled, site: liver, lesion: several types, types named in the paper, dosed 78 weeks, study length 78 weeks) was 534 mg/kg/day and the TD50 (mouse, strain Charles River CD1, males, inhaled, site: lung, lesion: adenoma, dosed 78 weeks, study length 78 weeks) was 1100 mg/kg/day. The TD50 (rat, strain Fischer 344, females, inhaled, site: liver, lesion: hepatocellular adenoma, dosed 113 weeks, study length 113 weeks) was 804 mg/kg/day, the TD50 (rat, strain Fischer 344, males, inhaled, site: liver, lesion: hepatocellular adenoma, dosed 113 weeks, study length 113 weeks) was 118 mg/kg/day and the TD50 (rat, strain Fischer 344, males, inhaled, site: liver, lesion: hepatocellular carcinoma, dosed 113 weeks, study length 113 weeks) was 242 mg/kg/day. For the same compound, the TD50 (rat, strain Fischer 344, males, inhaled, site: liver, lesion: several types, types named in the paper, dosed 113 weeks, study length 113 weeks) was 74.5 mg/kg/day, the TD50 (rat, strain Fischer 344, males, inhaled, site: mammary gland, lesion: fibroadenoma, dosed 113 weeks, study length 113 weeks) was 346 mg/kg/day and the TD50 (rat, strain Fischer 344, males, inhaled, site: skin, lesion: fibroma, dosed 113 weeks, study length 113 weeks) was 84.8 mg/kg/day.

`ClC1C2(Cl)C3C4C5OC5C5C4C1(Cl)C(Cl)(C53)C2(Cl)Cl` (stereo unspecified) was tested, and the TD50 (mouse, strain B6C3F1, females, in feed, site: any site (literature study), lesion: several types, types named in the paper, dosed 80 weeks, study length 92 weeks) was 0.743 mg/kg/day (inactive), the TD50 (mouse, strain B6C3F1, females, in feed, site: liver, lesion: hepatocellular adenoma + hepatocellular carcinoma + neoplastic nodule, dosed 80 weeks, study length 92 weeks) was 2.53 mg/kg/day and the TD50 (mouse, strain B6C3F1, females, in feed, site: lung, lesion: alveolar/bronchiolar adenoma + alveolar/bronchiolar carcinoma, dosed 80 weeks, study length 92 weeks) was 6.78 mg/kg/day. For the same compound, the TD50 (mouse, strain B6C3F1, males, in feed, site: any site (literature study), lesion: several types, types named in the paper, dosed 80 weeks, study length 93 weeks) was 0.494 mg/kg/day (inactive), the TD50 (mouse, strain B6C3F1, males, in feed, site: liver, lesion: hepatocellular adenoma + hepatocellular carcinoma + neoplastic nodule, dosed 80 weeks, study length 93 weeks) was 1.96 mg/kg/day and the TD50 (mouse, strain B6C3F1, males, in feed, site: lung, lesion: alveolar/bronchiolar adenoma + alveolar/bronchiolar carcinoma, dosed 80 weeks, study length 93 weeks) was 0.465 mg/kg/day. For the same compound, the TD50 (rat, strain Osborne-Mendel, females, in feed, site: any site (literature study), lesion: several types, types named in the paper, dosed 69 weeks, study length 111 weeks) was 0.327 mg/kg/day, the TD50 (rat, strain Osborne-Mendel, females, in feed, site: mammary gland, lesion: adenoma + fibroadenoma, dosed 69 weeks, study length 111 weeks) was 0.612 mg/kg/day (inactive) and the TD50 (rat, strain Osborne-Mendel, males, in feed, site: all sites, lesion: hemangioma, dosed 80 weeks, study length 109 weeks) was 2.89 mg/kg/day (inactive). For the same compound, the carcinogen call (rat, strain Osborne-Mendel, males, in feed, site: any site (literature study), lesion: several types, types named in the paper, dosed 80 weeks, study length 111 weeks) was “negative (inactive)” and the TD50 (rat, strain Osborne-Mendel, males, in feed, site: liver, lesion: hepatocellular adenoma + hepatocellular carcinoma + neoplastic nodule, dosed 80 weeks, study length 111 weeks) was 7.72 mg/kg/day.

In the case of `COc1cc(N)ccc1N=Nc1ccccc1`, the carcinogen call (mouse, strain B6C3F1, females, in feed, site: liver, lesion: one or several types, types not named, dosed 56 weeks, study length 56 weeks) is reported as “negative (inactive)” and the carcinogen call (mouse, strain B6C3F1, males, in feed, site: liver, lesion: one or several types, types not named, dosed 56 weeks, study length 56 weeks) is reported as “negative (inactive)”.

With `CC(=O)[O][Sn]([c]1ccccc1)([c]1ccccc1)[c]1ccccc1` the TD50 (mouse, strain B6AKF1, females, oral dosing, site: any site (literature study), lesion: several types, types named in the paper, dosed 76 weeks, study length 76 weeks) was 437 mg/kg/day (inactive), the carcinogen call (mouse, strain B6AKF1, females, oral dosing, site: liver, lesion: hepatoma, dosed 76 weeks, study length 76 weeks) was “negative (inactive)” and the TD50 (mouse, strain B6AKF1, females, oral dosing, site: lung, lesion: adenoma, dosed 76 weeks, study length 76 weeks) was 964 mg/kg/day (inactive). For the same compound, the TD50 (mouse, strain B6AKF1, males, oral dosing, site: any site (literature study), lesion: several types, types named in the paper, dosed 76 weeks, study length 76 weeks) was 307 mg/kg/day (inactive), the TD50 (mouse, strain B6AKF1, males, oral dosing, site: liver, lesion: hepatoma, dosed 76 weeks, study length 76 weeks) was 241 mg/kg/day (inactive) and the carcinogen call (mouse, strain B6AKF1, males, oral dosing, site: lung, lesion: adenoma, dosed 76 weeks, study length 76 weeks) was “negative (inactive)”. The TD50 (mouse, strain B6C3F1, females, oral dosing, site: any site (literature study), lesion: several types, types named in the paper, dosed 76 weeks, study length 76 weeks) was 284 mg/kg/day (inactive), the TD50 (mouse, strain B6C3F1, females, oral dosing, site: liver, lesion: hepatoma, dosed 76 weeks, study length 76 weeks) was 909 mg/kg/day (inactive) and the TD50 (mouse, strain B6C3F1, females, oral dosing, site: lung, lesion: adenoma, dosed 76 weeks, study length 76 weeks) was 440 mg/kg/day (inactive). The TD50 (mouse, strain B6C3F1, males, oral dosing, site: any site (literature study), lesion: several types, types named in the paper, dosed 76 weeks, study length 76 weeks) was 117 mg/kg/day (inactive), the TD50 (mouse, strain B6C3F1, males, oral dosing, site: liver, lesion: hepatoma, dosed 76 weeks, study length 76 weeks) was 407 mg/kg/day (inactive) and the TD50 (mouse, strain B6C3F1, males, oral dosing, site: lung, lesion: adenoma, dosed 76 weeks, study length 76 weeks) was 262 mg/kg/day (inactive).

`O=Nc1ccc(Nc2ccccc2)cc1` was tested, and the TD50 (mouse, strain B6C3F1, females, in feed, site: any site (literature study), lesion: several types, types named in the paper, dosed 53 weeks, study length 92 weeks) was 2170 mg/kg/day (inactive), the TD50 (mouse, strain B6C3F1, females, in feed, site: liver, lesion: hepatocellular adenoma + hepatocellular carcinoma + neoplastic nodule, dosed 53 weeks, study length 92 weeks) was 2250 mg/kg/day and the TD50 (mouse, strain B6C3F1, females, in feed, site: lung, lesion: alveolar/bronchiolar adenoma + alveolar/bronchiolar carcinoma, dosed 53 weeks, study length 92 weeks) was 5410 mg/kg/day. For the same compound, the TD50 (mouse, strain B6C3F1, males, in feed, site: any site (literature study), lesion: several types, types named in the paper, dosed 53 weeks, study length 92 weeks) was 260 mg/kg/day, the TD50 (mouse, strain B6C3F1, males, in feed, site: liver, lesion: hepatocellular adenoma + hepatocellular carcinoma + neoplastic nodule, dosed 53 weeks, study length 92 weeks) was 340 mg/kg/day and the TD50 (mouse, strain B6C3F1, males, in feed, site: liver, lesion: hepatocellular adenoma + hepatocellular carcinoma, dosed 53 weeks, study length 92 weeks) was 340 mg/kg/day. The TD50 (mouse, strain B6C3F1, males, in feed, site: liver, lesion: hepatocellular carcinoma, dosed 53 weeks, study length 92 weeks) was 661 mg/kg/day, the TD50 (mouse, strain B6C3F1, males, in feed, site: lung, lesion: alveolar/bronchiolar adenoma + alveolar/bronchiolar carcinoma, dosed 53 weeks, study length 92 weeks) was 3520 mg/kg/day and the carcinogen call (rat, strain Fischer 344, females, in feed, site: any site (literature study), lesion: several types, types named in the paper, dosed 78 weeks, study length 105 weeks) was “negative (inactive)”. For the same compound, the TD50 (rat, strain Fischer 344, females, in feed, site: liver, lesion: hepatocellular adenoma + hepatocellular carcinoma + neoplastic nodule, dosed 78 weeks, study length 105 weeks) was 1210 mg/kg/day, the TD50 (rat, strain Fischer 344, males, in feed, site: liver, lesion: hepatocellular adenoma + hepatocellular carcinoma + neoplastic nodule, dosed 78 weeks, study length 105 weeks) was 201 mg/kg/day and the TD50 (rat, strain Fischer 344, males, in feed, site: liver, lesion: hepatocellular carcinoma + neoplastic nodule, dosed 78 weeks, study length 105 weeks) was 201 mg/kg/day.

For `C=C(C)C#N`, the carcinogen call (mouse, strain B6C3F1, females, by gavage, site: any site (literature study), lesion: several types, types named in the paper, dosed 104 weeks, study length 104 weeks) was “negative (inactive)”, the TD50 (mouse, strain B6C3F1, females, by gavage, site: lung, lesion: alveolar/bronchiolar adenoma + alveolar/bronchiolar carcinoma, dosed 104 weeks, study length 104 weeks) was 178 mg/kg/day and the carcinogen call (mouse, strain B6C3F1, males, by gavage, site: any site (literature study), lesion: several types, types named in the paper, dosed 104 weeks, study length 104 weeks) was “negative (inactive)”. For the same compound, the TD50 (mouse, strain B6C3F1, males, by gavage, site: lung, lesion: alveolar/bronchiolar adenoma + alveolar/bronchiolar carcinoma, dosed 104 weeks, study length 104 weeks) was 160 mg/kg/day, the TD50 (rat, strain Fischer 344, females, by gavage, site: any site (literature study), lesion: several types, types named in the paper, dosed 104 weeks, study length 104 weeks) was 323 mg/kg/day (inactive) and the TD50 (rat, strain Fischer 344, males, by gavage, site: subcutaneous tissue, lesion: fibrosarcoma + fibrous histiocytoma + sarcoma, dosed 104 weeks, study length 104 weeks) was 205 mg/kg/day (inactive).
